The source of these data is patent US20250092029A1 (THE WISTAR INSTITUTE OF ANATOMY AND BIOLOGY, priority 2022, published 2025).

The structures appear in SMILES notation. Where two headings read alike, the source gives them in different places.

For one data set, the target named is SARS-CoV-2 Mpro (Severe acute respiratory syndrome coronavirus 2 (2019-nCoV) (SARS-CoV-2), UniProt P0DTD1). As to the kind of experiment: biochemical. The data set is classed as biochemical.
The target of the next data set is cathepsin L (Homo sapiens (Human), UniProt P07711). As to the kind of experiment: Cathepsin L enzymatic assay. The data set is classed as biochemical. As to the method: Cathepsin L enzymatic assay Assays contained 25 pM cathepsin L (RD systems: 952-CY-010), 5 uM LR-AMC, 100 nL of test compound in 100% DMSO, in at total of 10 uL of 20 mM KPO4, pH 6.0, 150 mM NaCl, 0.005% Tween20, 5 mM DTT in black low volume 384-well plates. The production of AMC was followed at 5 min intervals at 355 nm excitation, 460 nm emission in an Envision microplate reader (PerkinElmer). Reaction rates were determined by linear regression of the resulting progress curves. […] Nonlinear regression fits of the data to a one-site dose response curve were performed using XLFit (IDBS).
cathepsin L, sequence (P07711 114-333): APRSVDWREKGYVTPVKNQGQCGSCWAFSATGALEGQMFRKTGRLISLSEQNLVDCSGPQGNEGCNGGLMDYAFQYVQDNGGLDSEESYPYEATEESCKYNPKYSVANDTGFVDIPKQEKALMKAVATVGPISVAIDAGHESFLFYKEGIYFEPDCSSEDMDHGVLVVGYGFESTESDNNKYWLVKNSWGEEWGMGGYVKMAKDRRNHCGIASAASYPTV

In data set [1] the test system is SARS-CoV-2 (WT virus, WA1/2020). Put plainly: Virus replication in Vero-E6 cells, alamar blue viability readout. It is filed as cell-based. Conditions: read-out: EC50 against virus replication. (Alamar Blue is a resazurin reagent that responds to reducing activity.)
The target in another data set is thrombin (Homo sapiens (Human), UniProt P00734). As to the kind of experiment: Thrombin enzymatic assay. The data set is classed as biochemical. The protocol: Thrombin enzymatic assay Assays contained 25 pM thrombin (RD systems: 1473-SE-010), 25 uM BOC—PVR-AMC, 100 nL of test compound in 100% DMSO, in at total of 10 μL of 50 mM Tris, pH 7.0, 100 mM NaCl, 10 mM CaCl2, 0.005% Tween20 in black low volume 384-well plates. The production of AMC was followed at 5 min intervals at 355 nm excitation, 460 nm emission in an Envision microplate reader (PerkinElmer). Reaction rates were determined by linear regression of the resulting progress curves. […] Nonlinear regression fits of the data to a one-site dose response curve were performed using XLFit (IDBS).

Another data set addresses cathepsin B (Homo sapiens (Human), UniProt P07858). Put plainly: Cathepsin B enzymatic assay. The data set is classed as biochemical. As to the method:
Cathepsin B enzymatic assay Assays contained 0.6 nM cathepsin B (RD systems: 953-CY-010), 25 uM Z-LR-AMC, 100 nL of test compound in 100% DMSO, in at total of 10 uL of 50 mM MES, pH 5.0, 150 mM NaCl, 0.05% CHAPS, 5 mM DTT in black low volume 384-well plates. The production of AMC was followed at 5 min intervals at 355 nm excitation, 460 nm emission in an Envision microplate reader (PerkinElmer). Reaction rates were determined by linear regression of the resulting progress curves. […] Nonlinear regression fits of the data to a one-site dose response curve were performed using XLFit (IDBS).

A short description of data set [2]: Metabolic stability in mouse liver microsomes. Background: Liver microsomes are vesicles of endoplasmic reticulum, rich in cytochrome P450 enzymes.
Data set [3] concerns SARS-CoV-2 Delta (B.1.617). As to the kind of experiment: Virus replication in Vero-E6 cells, nucleocapsid immunostaining and high-content imaging, Delta. The following applies: for EC50: read-out: EC50 against virus replication. The data set is classed as cell-based.
The nature of data set [4]: Male hamster pharmacokinetic study, plasma and lung. Conditions: ip, 10 mg/kg.
Description: (§1) The compound was administered as a single dose at 10 mg/kg via intraperitoneal injection formulated in 10% DMSO/10% Solutol® HS15/PBS at 2 mg/mL (FIG. 7).
The subject of the next data set is SARS-CoV-2 WT (WA1/2020). As to the kind of experiment: Virus replication in Vero-E6 cells, nucleocapsid immunostaining and high-content imaging, WT. It is filed as cell-based. Conditions: for EC50: WT (WA1/2020), 150× TCID50, 48 h, high-content imaging, read-out: EC50 against virus replication.
For data set [5], the system named is SARS-CoV-2 Beta (B.1.351). Put plainly: Virus replication in Vero-E6 cells, nucleocapsid immunostaining and high-content imaging, Beta. The data set is classed as cell-based.
For data set [6] the following is noted: hamster, in vivo, ip, 10 mg/kg.
Description: as §1
In data set [7] the test system is SARS-CoV-2 Omicron (B.1.1.529). Put plainly: Virus replication in Vero-E6 cells, nucleocapsid immunostaining and high-content imaging, Omicron. The data set is classed as cell-based. Conditions: read-out: EC50 against virus replication.
Where [8] appears, read: Severe acute respiratory syndrome coronavirus 2, Vero C1008, 96 h, WT (WA1/2020), 96 h, alamar blue viability.
The mark [9] stands for this setting: WT (WA1/2020), 96 h, alamar blue viability.
The mark [10] stands for this setting: Severe acute respiratory syndrome coronavirus 2, Vero C1008, 48 h.

One may read the IC50 as the point on the concentration scale where inhibition reaches its midpoint. Broadly, the EC50 is the concentration giving half of the maximal effect. Broadly, the half-life is the time in which the quantity being followed falls by half. Higher therefore signals slow loss. Regarding `COc1cccc2[nH]c(C(=O)N[C@@H](CC(C)C)C(=O)N[C@@H](C[C@@H]3CCNC3=O)C(=O)COC(=O)c3c(Cl)cccc3Cl)cc12` [AP-8-001, reference compound], the IC50 against SARS-CoV-2 Mpro is 11 nM; at cathepsin L (read-out: CatL IC50), 0.0018 ± 0.00027 µM; against thrombin, greater than 10 µM; at cathepsin B (read-out: CatB IC50) it was 0.024 ± 0.0075 µM. Further, the “incubation time to achieve maximum inhibition” value at SARS-CoV-2 Mpro is no more than 10 min. In data set [1] (setting [8]), the EC50 worked out at 1970 nM. For the same compound, the half-life in [2] is less than 2 min.

Consider `O=C(CN1C(=O)[C@@H](NC(=O)c2ccccc2)COc2ccccc21)N[C@@H](C[C@@H]1CCNC1=O)C(=O)COC(=O)c1c(Cl)cccc1Cl` [AP-8-011, (S)-3-(2-((S)-3-benzamido-4-oxo-3,4-dihydrobenzo[b][1,4]oxazepin-5(2H)-yl)acetamido)-2-oxo-4-((S)-2-oxopyrrolidin-3-yl)butyl 2,6-dichlorobenzoate], for which the figures for the half-maximal inhibitory concentration (IC50) at cathepsin L (read-out: CatL IC50), at thrombin and at cathepsin B (read-out: CatB IC50) were greater than 32 µM, greater than 32 µM and 13 µM, respectively. For the same compound, the half-life in data set [2] was less than 2 min.

One may read the Kp as the ratio of the level in a tissue or fluid to that in plasma or blood. Consider `O=C(CN1C(=O)[C@@H](NC(=O)OCc2ccccc2)COc2ccccc21)N[C@@H](C[C@@H]1CCNC1=O)C(=O)COC(=O)c1c(Cl)cccc1Cl` [AP-8-013, (S)-3-(2-((S)-3-(benzyloxycarbonylamino)-4-oxo-3,4-dihydrobenzo[b][1,4]oxazepin-5(2H)-yl)acetamido)-2-oxo-4-((S)-2-oxopyrrolidin-3-yl)butyl 2,6-dichlorobenzoate], for which the “reducing viral load (percent infected live cells)” value is given as “effective” in data set [3]; “effective” in the data set with SARS-CoV-2 WT (WA1/2020) (WT (USA-WA1/2020), 50× TCID50, 48 h, FIG. 6); “effective” in data set [5]. The compound also yielded a concentration ratio (Kp) in [4] of 3.2. Also, the “incubation time to achieve maximum inhibition” value at SARS-CoV-2 Mpro fell in the range of 60 to 120 min. For the same compound, the IC50 on cathepsin L (read-out: CatL IC50) was greater than 32 µM; on cathepsin L (read-out: Cathepsin L IC50), greater than 15 µM; against thrombin it was greater than 32 µM; on cathepsin B (read-out: CatB IC50), 18 µM; at cathepsin B (read-out: Cathepsin B IC50), greater than 15 µM. Further, the “clinical symptoms during the in-life phase” value in data set [6] was “no abnormal clinical symptoms”. The lung concentration achieved result in data set [6] (male) was “about 8 μM”. Also, the concentration giving a half-maximal response (EC50) in data set [1] (setting [8]) was less than 10000 nM; in data set [1] (setting [9]), 7250 nM. This compound gave a half-life in data set [2] of less than 2 min.

`N[C@H]1COc2ccccc2N(CC(=O)N[C@@H](C[C@@H]2CCNC2=O)C(=O)COC(=O)c2c(Cl)cccc2Cl)C1=O.O=C(O)C(F)(F)F` [AP-9-055, (S)-3-(2-((S)-3-amino-4-oxo-3,4-dihydrobenzo[b][1,4]oxazepin-5(2H)-yl)acetamido)-2-oxo-4-((S)-2-oxopyrrolidin-3-yl)butyl 2,6-dichlorobenzoate 2,2,2-trifluoroacetate] showed a half-life in data set [2] of less than 2 min.

With `CC(C)C[C@H](NC(=O)OCc1ccccc1)C(=O)N[C@@H](C[C@@H]1CCNC1=O)C(O)S(=O)(=O)O` (stereo partly drawn) [GC-376], the EC50 in [3] (setting [10]) worked out at 640 nM; in [7] (setting [10]), 360 nM; with SARS-CoV-2 WT (WA1/2020) (setting [10]), 270 nM; in [5] (Severe acute respiratory syndrome coronavirus 2, Vero C1008, 48 h, read-out: EC50 against virus replication), 290 nM; in data set [1] (Severe acute respiratory syndrome coronavirus 2, Vero C1008, 96 h) it was 2050 nM.

As for `CC(C)(C)[C@H](NC(=O)C(F)(F)F)C(=O)N1C[C@H]2[C@@H]([C@H]1C(=O)N[C@H](C#N)C[C@@H]1CCNC1=O)C2(C)C` [PF07321332], the EC50 in data set [3] came to 330 nM; in [7], 440 nM; in the data set on SARS-CoV-2 WT (WA1/2020), 380 nM; in [1] (setting [9]), 1570 nM.
